Source: patent US10736923B2, “Methods and compositions for generating chondrocyte lineage cells and/or cartilage like tissue” (UNIVERSITY HEALTH NETWORK, priority 2013, dated 2020)

How the values were obtained:
Type in all cases: cell-based, human
[1] = tested on: primitive streak-like mesoderm population; test: Paraxial mesoderm specification in monolayer culture, flow cytometry of cell surface markers; conditions: day 4 to day 6 with Dorsomorphin, bFGF, SB431542; read on day 15
Description: FIG. 2. Characterization of paraxial mesoderm derived from hPSCs. Flow cytometric analysis of day 5 mesoderm treated with no additional factors (0 DM, no FGF), FGF, 4 μM DM, or 4 μM DM+FGF. Day 5 profiles depict KDR and PDGFRa expression, a double-positive population (gated) indicates mesoderm that has cardiac potential (20). Treatment with FGF results in less PDGFRa expression on day 5. (B) Expression of cell surface markers CD73, CD105, and PDGFR-beta on mesoderm populations on day 15 of differentiation. […] Experimental cell treatments during day 4 to day 6 include the combination of Dorsomorphin, bFGF, TGFbeta inhibitor (SB431542) in the presence or absence of the wnt pathway inhibitor IWP2. Flow cytometric analyses of CD73 and CD105, on day 15 mesoderm populations derived as indicated. (D) Gene expression analyses of day 15 mesoderm populations derived in indicated factors. Nkx2.5 is a cardiac transcription factor, Meox1 and Nkx3.2 are paraxial mesoderm and somite transcription factors. (E) Micrographs depicting 1 day old micromasses and 1 week old micromasses derived from day 15 mesoderm populations as indicated. (F) Flow cytometric analysis of cardiac troponin T (cTnT) expression in 1 week old micromasses derived from day 15 mesoderms as indicated. […] To generate chondrocytes, it is essential to first specify this PS population to a paraxial mesoderm fate. Previous studies have shown that mesoderm populations that express cell surface markers often found on mesenchymal stem cells, CD73 and CD105, have chondrogenic potential (Hwang, Kim et al. 2006). The expression of these two cell surface markers, as well as the expression of transcription factors Meox1 and Nkx3.2 combined with the lack of expression of Nkx2.5 to monitor the emergence of a paraxial mesoderm population was used. Previous experiments in the mouse ESC model system have shown the importance of inhibiting the BMP signaling pathway in the context of FGF signaling to prevent the emergence of cardiac mesoderm and promote the development of paraxial mesoderm (Craft, Ahmed et al. 2013). […] Very few cells in untreated mesoderm conditions expressed CD73 and CD105 (7.46%, FIG. 2B). […] The changes in expression of these surface markers were accompanied by the upregulation of paraxial genes Meox1 and Nkx3.2 (FIG. 2C). […] Thus, in some cell lines, the efficiency of paraxial mesoderm specification may be improved in the presence of a Wnt pathway antagonist immediately following the PS mesoderm induction phase.

[2] = tested on: hPSC-derived articular chondrocytes; test: Response of hPSC-derived articular-like cartilage to IL1β
Description: FIG. 9. hPSC-derived articular-like cartilage respond appropriately to the pro-inflammatory molecule IL1β. (A) The experimental plan is depicted. Articular cartilage tissues were derived from hPSCs for 10 weeks in the presence of TGFβ3. Cartilage tissues (micromasses) were treated for two weeks (from week 10-12) with TGFβ3 or IL1β (10 ng/ml), as indicated. […] Values represent copy number mRNA relative to TBP (n=7). Error bars indicate s.e.m. (K) Histological analysis of 12-week tissues after treatments as indicated. Metachromatic toluidine blue staining indicates proteoglycans.
Access to an unlimited supply of hPSC-derived articular-like cartilage provides an opportunity to establish platforms to analyze the effects of pro-inflammatory cytokines such as […] (IL1beta), known to play a role in the early stages of osteoarthritis (OA). […] These enzymes cleave proteins found in cartilage extracellular matrix (ECM), such as collagens and aggrecans, which leads to the degradation of cartilage tissue. Significant upregulation of MMP13 and ADAMTS4 was observed only in the absence of TGFbeta3. ADAMTS5 was induced with or without TGFbeta3 present.

[3] = tested on: hPSC-derived paraxial mesoderm; test: Chondrocyte specification in micromass culture with TGFB3 or BMP4 (histology, scatter flow cytometry, qRT-PCR, immunostaining); conditions: for CILP2 expression / COL2A1 expression / PRG4 (lubricin) expression: 12 weeks of micromass culture, TGF agonist 10 ng/ml
Description: FIG. 4. TGFB3 and BMP4 specify chondrocytes and cartilage-like tissues with articular cartilage and growth plate cartilage phenotypes. (A) Micrographs of 5 week old micromasses derived with TGFB3 or BMP4, 20× magnification. (B) Tissue histology (stained with toluidine blue) of 13 week cartilage tissues derived with TGFB3 or BMP4. […] (C) Flow cytometric analysis of forward and side cell scatter parameters of 3 week and 5 week old micromasses. Side scatter indicates cell granularity and forward cell scatter indicates cell size. (D) Comparison of hPSC-derived micromass tissues to fetal primary chondrocyte derived micromass tissues and the developing human fetal femur cartilage. Articular cartilage regions appear to have smaller cells in size compared to growth plate like regions, which contain cells which appear enlarged (hypertrophic). Cartilage tissues in micromass as well as in the fetal femur stain uniformly with the toluidine blue stain (images are pink/purple in color and indicate the presence of cartilage proteins). The BMP4-treated micromass tissues contain a large number of enlarged cells which is similar to the bottom panel of the fetal cartilage which represents a growth plate cartilage. TGFB3 treated micromass cultures contain fewer, if any, enlarged chondrocytes, and appear similar to the upper panel of the fetal cartilage which is the site of articular cartilage. (E) Micrograph using GDF5 instead of BMP4 to generate hypertrophic chondrocytes. (F) Histological analyses of cartilage tissues derived from hiPSCs stained with Toluidine blue after 12 weeks. (G,H) Immunohistochemical staining of hESC-derived cartilage tissues for type II Collagen (G, 8 week tissues), and lubricin (H, 12 week tissues).
FIG. 5. Gene expression analyses of chondrocyte specification in the presence of TGFB3 or BMP4 during stages 3 and 4 of differentiation respectively. General chondrocyte genes Sox9 (A) and collagen 2 (B), hypertrophic genes collagen 10 (C), Runx2 (D), osterix (E) and alkaline phosphatase (F), articular cartilage associated genes lubricin (G) and cartilage intermediate layer protein 2 (CILP2) (H), interzone-related (joint progenitor) genes GDF5 (I), ERG (J) and Wnt9a (K). Expression is copy number relative to TBP (n=3 to 8 biological replicates) and is compared to primary fetal chondrocytes (aged 16 to 19 weeks, n=4), primary healthy adult articular chondrocytes (n=2), and growth plate-like chondrocytes isolated from the iliac crest of an adult (n=1). T15 Mesoderm indicates day 15 hESC-derived paraxial mesoderm (DM+FGF-treated). Error bars indicate s.e.m.
FIG. 8. TGFβ1, TGFβ2, and TGFβ3 generated articular chondrocytes from hPSC-derived paraxial mesoderm. COL2A1, lubricin, and CILP2 gene expression after 12 weeks of micromass culture in the presence of TGF agonists as indicated (10 ng/ml). Values represent copy number mRNA relative to TBP. Error bars indicate s.e.m.
Previous studies have shown that TGFBeta/BMP signaling is required to generate chondrocyte progenitors from paraxial mesoderm. […] Following 10 days of TGFb3 treatment (day 25 total), cultures could be switched to media containing BMP4 or maintained in TGFb3 (stage 4) in order to specify subsets of chondrocytes (articular/non-hypertrophic or growth plate/hypertrophic). To determine the chondrocyte potential of the day 15 mesoderm populations, the cells were plated at high cell density in a 20 microliter volume on tissue culture treated Petri dishes for an hour (micromass) and then the ‘spot’ was submerged/covered with media. In our initial studies, the cells were ‘spotted’ in a media containing 2% fetal bovine serum. However, this short serum exposure can be omitted with no effects on cartilage formation at later stages, making this protocol optionally serum-free. After 2 to 3 days, serum-free media containing TGFb3 is added to the culture to generate chondrocyte progenitors. […]

[4] = IL1beta in presence of TGFbeta3
[5] = IL1β 10 ng/ml, week 10-12, absence of TGFb3
[6] = IL1β 10 ng/ml, week 10-12, absence of TGFbeta3

Cc1ccc2nc(NC(=O)CSc3nc4c(c(=O)n3-c3ccccc3)SCC4)sc2c1 [IWP2, N-(6-Methyl-2-benzothiazolyl)-2-[(3,4,6,7-tetrahydro-4-oxo-3-phenylthieno[3,2-d]pyrimidin-2-yl)thio]-acetamide, reference compound]
CD73 and CD105 expression with Wnt inhibition [1]: improve the efficiency of CD73 and CD105 expression

IL1beta: pro-inflammatory cytokine
CILP2 expression [2, 4]: downregulated
lubricin (PRG4) expression [2, 4]: downregulated
ADAMTS5 expression ([2]; IL1beta with TGFbeta3 present): induced
ACAN expression ([2]; IL1β 10 ng/ml, week 10-12): reduction
COL2A1 expression ([2]; IL1β 10 ng/ml, week 10-12): reduction
vascular endothelial growth factor (VEGF) expression ([2]; IL1β 10 ng/ml, week 10-12): increase
proteoglycans in the tissue (toluidine blue) ([2]; IL1β 10 ng/ml, week 10-12, 12-week tissues): noticeable loss
ADAMTS4 expression [2, 5]: upregulation
ADAMTS5 expression [2, 5]: upregulation
MMP2 expression [2, 5]: upregulation
MMP13 expression [2, 5]: upregulation
CILP2 expression [2, 6]: downregulated
lubricin (PRG4) expression [2, 6]: downregulated

TGFbeta1: TGFbeta agonist
CILP2 expression [3]: upregulated
COL2A1 expression [3]: upregulated
PRG4 (lubricin) expression [3]: upregulated

B1: TGFbeta2: TGFbeta agonist (protein, UniProt P61812 303-414, looked up)
Transforming growth factor …: ALDAAYCFRNVQDNCCLRPLYIDFKRDLGWKWIHEPKGYNANFCAGACPYLWSSDTQHSRVLSLYNTINPEASASPCCVSQDLEPLTILYYIGKTPKIEQLSNMIVKSCKCS
CILP2 expression [3]: upregulated
COL2A1 expression [3]: upregulated
PRG4 (lubricin) expression [3]: upregulated

B2: GDF5: growth and differentiation factor 5, BMP4 agonist (protein, UniProt P43026 382-501, looked up)
Growth/differentiation factor …: APLATRQGKRPSKNLKARCSRKALHVNFKDMGWDDWIIAPLEYEAFHCEGLCEFPLRSHLEPTNHAVIQTLMNSMDPESTPPTCCVPTRLSPISILFIDSANNVVYKQYEDMVVESCGCR
tissue histology (toluidine blue), chondrocyte size ([3]; 13 week old tissues, GDF5 instead of BMP4): generates hypertrophic chondrocytes
